These results are taken from PubChem BioAssay (NCI).

SMILES strings stand for the structures.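 Five concentrations, 48 hours, 96-well plates. The concentration for 50% growth inhibition is given as GI50. The concentration for full growth arrest is given as TGI.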

Common to all, as to assay: NCI anticancer screen, dose series, 48 h
The subject of test [1] is MDA-MB-435.
Test [2] relates to HCT-116 colon.
For test [3], the system named is HS 578T breast.
For test [4], the system named is DU-145 prostate.
The test system of test [5] is T-47D breast.
Test [6] relates to RXF 393 renal.
In test [7] the test system is OVCAR-4 ovarian.
Test [8] concerns RPMI-8226 leukemia.
Test [9] deals with ACHN renal.
For test [10], the system named is M14 melanoma.

In the case of `COc1cc2c(cc1OCCCCCCCCN1C(=O)c3cccc4cccc(c34)C1=O)N=C[C@@H]1CCCN1C2=O`, the TGI in [1] is 51.7 µM; in test [2], above 100 µM; in test [3] it was above 100 µM; in test [4] it was above 100 µM; in test [5], above 100 µM; in [6], 29.7 µM. Besides, the TGI in [7] is 7.41 µM; in test [8] it was 8.53 µM; in test [9], above 100 µM; in test [10] it was above 100 µM.

With `NC(=S)N1N=C(c2ccccc2O)CC1c1ccccc1` (stereo unspecified), the TGI came to 20.2 µM in [1]; 28.1 µM in test [2]; 72.4 µM in test [3]; 81.3 µM in [4]; 68.5 µM in test [5]; 41.6 µM in [6]. The TGI was found to be 67.1 µM in test [7], 39.3 µM in [8], 61.8 µM in test [9] and 24.5 µM in test [10].

Take `CCOC(=O)C1=COC(C)(c2ccccc2)CC1=O` (stereo unspecified): the TGI in [1], in test [2], in test [3], in test [4], in [5] and in test [6] was above 100 µM each time. For the same compound, the TGI in test [7], in test [8], in test [9] and in test [10] was above 100 µM throughout.

Turning to `O=c1c2ccccc2[nH]c(=S)n1-c1ccc(N=Nc2cccc3cc(O)ccc23)cc1`, the TGI in test [1], in test [2], in [3], in [4], in [5] and in [6] was above 100 µM throughout. In addition, the TGI in test [7], in test [8], in test [9] and in [10] was above 100 µM throughout.

For the compound `Nc1cc(-c2ccc(Cl)cc2)nn1-c1nc2ccccc2nc1-c1ccccc1`, the TGI in test [1], in test [2], in test [3], in test [4], in [5] and in [6] was above 100 µM each time. In addition, the TGI in [7], in test [8], in [9] and in test [10] was above 100 µM in each case.

Take `CCO/C(O)=C(/C(=N)N1CCCC1)C(=O)Nc1ccc(F)cc1`: the TGI in test [1], in [2], in [3], in test [4], in test [5] and in [6] was above 100 µM in each case. In addition, the TGI in test [7], in test [8], in [9] and in test [10] was above 100 µM each time.

`Cc1nc2ncn3c(c-2c1Cc1ccccc1)NC=C(O)N3`: the TGI in [1] is above 100 µM; in test [2], above 100 µM; in test [3], above 100 µM; in test [4] it was above 100 µM; in [5], 61.3 µM; in test [6], 64 µM. The TGI in [7], in test [8], in [9] and in test [10] was above 100 µM each time.

Consider `O=[N+]([O-])c1ccc2c(c1)nc(Cc1ccc(Cl)cc1)n2C[C@@H]1CCCN2CCCCC12` (stereo partly specified), for which the TGI in [1] amounted to 28.3 µM; in [2], 23.3 µM; in test [3], 43.3 µM; in test [4], 38.1 µM; in [5], 36.6 µM; in test [6], 25.3 µM. Moreover, the TGI in [7] was above 44 µM; in test [8], above 100 µM; in test [9], 29 µM; in [10], 25.9 µM.

Take `Nc1ccc(-c2nc3cc(F)ccc3s2)cc1CO`: the TGI in test [1] is above 100 µM; in test [2], above 100 µM; in [3], above 100 µM; in test [4] it was above 100 µM; in [5], above 100 µM; in test [6], 34.9 µM. For the same compound, the TGI in test [7], in [8], in test [9] and in test [10] was above 100 µM throughout.

Regarding `C/C(N=Nc1nc2ccccc2[nH]1)=C1/C=CC=CN1O`, the TGI in test [1], in test [2], in [3], in [4], in [5] and in [6] was above 100 µM each time. Moreover, the TGI in [7], in [8], in test [9] and in test [10] was above 100 µM each time.

For `Nc1ccc(Oc2ccc(C34CC5CC(C3)CC(c3ccc(Oc6ccc(N)cc6)cc3)(C5)C4)cc2)cc1`, the TGI in [1] is 40.7 µM; in [2], above 44.8 µM; in [3], above 62.8 µM; in test [4] it was 33.3 µM; in test [5], 66.3 µM; in test [6], above 51.9 µM. For the same compound, the TGI in test [7] was 51.2 µM; in test [8], above 100 µM; in [9] it was above 51.4 µM; in test [10], 23.5 µM.

For `CC(=O)c1ccc2c(c1)N(CCCN1CCN(CCO)CC1)c1ccccc1C2`, the TGI in test [1] was found to be 21.7 µM; in test [2], 30.5 µM; in test [3] it was 31.2 µM; in test [4], 28 µM; in test [5], 25.9 µM; in [6], 32.6 µM. The TGI in test [7] was found to be 30.2 µM; in test [8], 30.1 µM; in test [9] it was 34.8 µM; in test [10], 28.3 µM.

Consider `C#C[C@]1(O)CC[C@H]2[C@@H]3CCC4=C/C(=N\OCCN(CC)CC)CC[C@]4(C)[C@H]3CC[C@@]21C`, for which the TGI in test [1] came to 15.2 µM; in [2], 17.6 µM; in test [3], 7.51 µM; in test [4], 25.8 µM; in test [5], 40.9 µM; in test [6] it was 7.35 µM. The TGI in [7] is 50.4 µM; in test [8], 5.83 µM; in test [9], 28.1 µM; in [10], 10.9 µM.

As for `O=C1/C(=C\c2ccc(F)cc2)CCOc2c1ccc1ccccc21`, the TGI in [1] was 74.3 µM; in [2], 10.7 µM; in [3], above 84.9 µM; in test [4], 98 µM; in [5] it was above 100 µM; in [6], 49.7 µM. The TGI in [7] is above 100 µM; in [8], 9.45 µM; in test [9], above 100 µM; in test [10], 82.7 µM. In test [9], the GI50 is 47.9 µM.

Regarding `COC(OC)C1OC(CO)C(n2cc(F)c(=O)[nH]c2=O)C1O` (stereo unspecified), the TGI was above 100 µM in test [1]; above 100 µM in [2]; above 100 µM in [3]; 64.4 µM in test [4]; above 100 µM in test [5]; above 100 µM in [6]. For the same compound, the TGI in test [7], in [8], in test [9] and in [10] was above 100 µM in each case.

`COC(CN(C=O)[C@@H](c1ccc(Cl)cc1)c1cc2ccccc2o1)OC`: the TGI was determined as 35.5 µM in [1]; 32.9 µM in test [2]; 27.6 µM in test [3]; 30.9 µM in test [4]; 33.8 µM in test [5]; 28.4 µM in test [6]. Also, the TGI was 40 µM in [7], 35.3 µM in [8], 41.7 µM in test [9] and 37.1 µM in test [10].

For `CCCCCOC(=O)c1cc2cc(CCl)ccc2oc1=O`, the TGI in test [1] was 14.9 µM; in test [2], 27.4 µM; in test [3], above 42.8 µM; in test [4] it was 17.1 µM; in test [5], 13.6 µM; in [6], 14.6 µM. Also, the TGI was 18.6 µM in [7], above 80.1 µM in test [8], 8.42 µM in test [9] and 34.8 µM in test [10].

Take `COC(=O)C[C@H](COCc1ccccc1)NC(=O)C[C@H](COCc1ccccc1)NC(=O)OC(C)(C)C`: the TGI in test [1] was above 100 µM; in test [2], 81.2 µM; in test [3], 67.1 µM; in test [4], 44.9 µM; in [5], 98.7 µM; in test [6] it was 63.3 µM. Besides, the TGI in test [7] was 36.7 µM; in test [8], above 100 µM; in [9], above 100 µM; in [10], above 100 µM.

As for `O=C1c2ccccc2C(C2c3ccccc3C(=O)c3cc(Br)ccc32)c2ccc(Br)cc21` (stereo unspecified), the TGI in test [1], in [2], in [3], in [4], in test [5] and in test [6] was above 100 µM each time. Moreover, the TGI in test [7], in test [8], in test [9] and in test [10] was above 100 µM each time.
